27 molecules from patent US20250353833A1, “DPP9 BINDING COMPOUNDS” (UNIVERSITEIT ANTWERPEN, priority 2022, published 2025) can be followed below.

In one experiment the target is DPP8 (Homo sapiens (Human), UniProt Q6V1X1). Put plainly: DPP8 enzyme inhibition, IC50 measurement (Ala-Pro-pNA release). In kind it is biochemical. To be noted: Table 3; mean ± SD (n = 3); read-out: DPP8 IC50 ± SD. As for the experimental part: (§1) IC50 measurements. […] The Magellan software was used to process the data, which was then fitted using a non-linear fit model in GraFit 7. […] As a blank, the assay buffer was used instead of the enzyme. Screening measurements were carried out in duplo and IC50 values were determined in triplo with at least eight different inhibitor concentrations as described by Van Goethem et al.

The next experiment concerns the target DPP9 (Homo sapiens (Human), UniProt Q86TI2). Put plainly: DPP9 enzyme inhibition, IC50 measurement (Ala-Pro-pNA release). To be noted: Table 3; for IC50: mean ± SD (n = 3), read-out: DPP9 IC50 ± SD; for SI DPP9/8: selectivity index, DPP8 IC50 over DPP9 IC50. In kind it is biochemical. As for the experimental part:
DPP4 was purified from human seminal plasma as described previously.^[3]
as §1

Sequence of DPP8 (Q6V1X1 whole entry): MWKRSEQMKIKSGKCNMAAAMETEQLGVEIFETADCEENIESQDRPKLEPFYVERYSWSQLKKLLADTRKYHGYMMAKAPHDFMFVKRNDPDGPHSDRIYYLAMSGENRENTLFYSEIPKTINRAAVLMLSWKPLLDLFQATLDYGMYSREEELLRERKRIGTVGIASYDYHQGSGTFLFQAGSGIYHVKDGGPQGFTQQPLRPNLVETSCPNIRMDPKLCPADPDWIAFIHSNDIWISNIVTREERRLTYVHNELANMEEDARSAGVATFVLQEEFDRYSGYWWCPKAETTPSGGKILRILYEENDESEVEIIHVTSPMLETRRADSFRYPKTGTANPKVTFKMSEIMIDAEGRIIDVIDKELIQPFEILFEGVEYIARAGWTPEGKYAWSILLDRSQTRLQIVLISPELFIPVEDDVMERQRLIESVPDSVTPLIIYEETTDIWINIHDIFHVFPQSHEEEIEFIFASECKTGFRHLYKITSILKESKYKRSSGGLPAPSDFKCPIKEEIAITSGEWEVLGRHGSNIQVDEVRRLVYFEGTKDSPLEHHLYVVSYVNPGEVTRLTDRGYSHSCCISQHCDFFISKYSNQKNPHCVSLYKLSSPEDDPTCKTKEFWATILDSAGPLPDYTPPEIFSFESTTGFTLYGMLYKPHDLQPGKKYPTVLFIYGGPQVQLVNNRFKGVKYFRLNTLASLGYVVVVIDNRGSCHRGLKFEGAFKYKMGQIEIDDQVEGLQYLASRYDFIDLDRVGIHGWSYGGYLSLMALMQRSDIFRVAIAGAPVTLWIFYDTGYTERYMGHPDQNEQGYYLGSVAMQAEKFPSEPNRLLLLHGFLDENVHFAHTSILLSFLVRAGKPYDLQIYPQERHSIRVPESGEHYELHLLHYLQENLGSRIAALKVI
Sequence of DPP9 (Q86TI2 whole entry): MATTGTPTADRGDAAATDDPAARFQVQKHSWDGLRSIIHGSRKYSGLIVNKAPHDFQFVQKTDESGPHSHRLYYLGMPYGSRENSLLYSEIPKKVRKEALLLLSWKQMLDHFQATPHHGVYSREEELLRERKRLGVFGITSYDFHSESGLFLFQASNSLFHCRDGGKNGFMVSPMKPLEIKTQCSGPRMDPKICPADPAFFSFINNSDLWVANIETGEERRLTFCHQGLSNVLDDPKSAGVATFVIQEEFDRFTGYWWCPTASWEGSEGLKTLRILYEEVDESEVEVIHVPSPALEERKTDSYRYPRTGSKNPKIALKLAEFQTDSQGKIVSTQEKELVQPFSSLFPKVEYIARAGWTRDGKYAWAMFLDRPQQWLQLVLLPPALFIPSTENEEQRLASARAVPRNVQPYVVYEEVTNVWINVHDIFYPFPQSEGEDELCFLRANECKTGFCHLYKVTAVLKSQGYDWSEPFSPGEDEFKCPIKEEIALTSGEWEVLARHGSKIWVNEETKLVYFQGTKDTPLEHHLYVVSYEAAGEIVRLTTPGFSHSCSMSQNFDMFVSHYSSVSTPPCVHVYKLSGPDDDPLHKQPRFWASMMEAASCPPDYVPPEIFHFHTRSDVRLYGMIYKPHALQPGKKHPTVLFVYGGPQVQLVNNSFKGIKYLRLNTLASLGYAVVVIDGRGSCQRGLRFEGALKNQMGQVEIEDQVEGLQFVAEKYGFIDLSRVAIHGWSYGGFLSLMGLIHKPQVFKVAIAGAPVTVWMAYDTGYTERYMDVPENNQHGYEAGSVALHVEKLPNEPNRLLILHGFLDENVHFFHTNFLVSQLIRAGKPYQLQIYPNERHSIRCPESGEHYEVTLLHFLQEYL

On to “3-((2-(isoindolin-2-yl)-2-oxoethyl)amino)adamantan-1-yl tert-pentylcarbamate hydrochloride [Compound 31]”, for which the figures for the IC50 at DPP8 and at DPP9 were 4710 ± 1590 nM and 378 ± 173 nM, respectively. Further, the “SI DPP9/8” value on DPP9 is on record as 12.5.
Take `N#Cc1ccc(CNC23CC4CC(CC(NCC(=O)N5Cc6ccccc6C5)(C4)C2)C3)cc1` [Compound 26, 4-(((-3-((2-(isoindolin-2-yl)-2-oxoethyl)amino)adamantan-1-yl)amino)methyl)benzonitrile]: the IC50 on DPP8 worked out at 672 ± 412 nM. On DPP9, the IC50 worked out at 50.6 ± 28.7 nM and the “SI DPP9/8” value is 13.3.
`O=C(CNC12CC3CC(C1)CC(NCc1ccc(-c4ccccc4)cc1)(C3)C2)N1Cc2ccccc2C1` [Compound 27, 2-((3-(([1,1′-biphenyl]-4-ylmethyl)amino)adamantan-1-yl)amino)-1-(isoindolin-2-yl)ethan-1-one]: the IC50 on DPP8 stood at 1540 ± 101 nM; at DPP9 it was 93.2 ± 39 nM. Moreover, on DPP9, the “SI DPP9/8” value came out at 16.5.
For `CC(C)(C)OC(=O)NC12CC3CC(CC(NCC(=O)N4Cc5ccccc5C4)(C3)C1)C2` [Compound 28, tert-butyl(3-((2-(isoindolin-2-yl)-2oxoethyl)amino)adamantan-1-yl)carbamate], in that order: 1140 ± 150 nM, 36.7 nM and 31.7.
For `O=C(NCCCCO)OC12CC3CC(CC(NCC(=O)N4Cc5ccccc5C4)(C3)C1)C2` [Compound 29, 3-((2-(isoindolin-2-yl)-2-oxoethyl)amino)adamantan-1-yl(4-hydroxybutyl)carbamate], in that order: 2600 ± 577 nM, 243 ± 107 nM and 10.7.
With `O=C(NC(c1ccc(F)cc1)c1ccc(F)cc1)OC12CC3CC(CC(NCC(=O)N4Cc5ccccc5C4)(C3)C1)C2` [Compound 32, 3-((2-(isoindolin-2-yl)-2-oxoethyl)amino)adamantan-1-yl (bis(4-fluorophenyl)methyl)carbamate], the IC50 at DPP8 is 667 ± 31.1 nM. Moreover, at DPP9, the IC50 was found to be 47.7 nM and the “SI DPP9/8” value was 14.0.
As for `O=C(NC(c1ccccc1)c1ccccc1)OC12CC3CC(CC(NCC(=O)N4Cc5ccccc5C4)(C3)C1)C2` [Compound 33, 3-((2-(isoindolin-2-yl)-2-oxoethyl)amino)adamantan-1-yl benzhydrylcarbamate], the IC50 turned out to be 175 ± 33.1 nM on DPP8 and 14.3 nM on DPP9. For the same molecule, the “SI DPP9/8” value on DPP9 is on record as 12.2.
With `O=C(NCCCC[C@H](NC(=O)OC12CC3CC(CC(NCC(=O)N4Cc5ccccc5C4)(C3)C1)C2)C(=O)O)OCc1ccccc1` [Compound 34, N^6-((benzyloxy)carbonyl)-N^2-(((3-((2-(isoindolin-2-yl)-2-oxoethyl)amino)adamantan-1-yl)oxy)carbonyl)-L-lysine], the concentration for half-maximal inhibition (IC50) worked out at 39.4 nM on DPP8 and 1.74 nM on DPP9. The “SI DPP9/8” value at DPP9 came to 22.5.
For the molecule `O=C(N[C@H]1CC[C@H](O)CC1)OC12CC3CC(CC(NCC(=O)N4Cc5ccccc5C4)(C3)C1)C2` [Compound 35, 3-((2-(isoindolin-2-yl)-2-oxoethyl)amino)adamantan-1-yl ((1r,4R)-4-hydroxycyclohexyl)carbamate], the IC50 on DPP8 amounted to 399 ± 38.8 nM. On DPP9, the IC50 was 36.6 nM and the “SI DPP9/8” value came out at 10.9.
Take `O=C(NCc1ccccc1)OC12CC3CC(CC(NCC(=O)N4Cc5ccccc5C4)(C3)C1)C2` [Compound 36, 3-((2-(isoindolin-2-yl)-2-oxoethyl)amino)adamantan-1-yl benzylcarbamate]: the IC50 on DPP8 was 1150 ± 151 nM. Moreover, on DPP9, the IC50 turned out to be 73.8 nM and the “SI DPP9/8” value was found to be 15.6.
The matching figures for `O=C(NCc1ccncc1)OC12CC3CC(CC(NCC(=O)N4Cc5ccccc5C4)(C3)C1)C2` [Compound 37, 3-((2-(isoindolin-2-yl)-2-oxoethyl)amino)adamantan-1-yl (pyridin-4-ylmethyl)carbamate]: 1110 ± 335 nM, 90.8 ± 13.5 nM and 12.2.
Take `O=C(NCCCc1ccccc1)OC12CC3CC(CC(NCC(=O)N4Cc5ccccc5C4)(C3)C1)C2` [Compound 38, 3-((2-(isoindolin-2-yl)-2-oxoethyl)amino)adamantan-1-yl (3-phenylpropyl)carbamate]: the IC50 worked out at 1010 ± 132 nM at DPP8 and 100 nM on DPP9. Moreover, at DPP9, the “SI DPP9/8” value came out at 10.1.
Turning to `O=C(NCc1ccc(F)cc1F)OC12CC3CC(CC(NCC(=O)N4Cc5ccccc5C4)(C3)C1)C2` [Compound 39, 3-((2-(isoindolin-2-yl)-2-oxoethyl)amino)adamantan-1-yl (2,4-difluorobenzyl)carbamate], at DPP8, the IC50 was 823 ± 185 nM. In addition, at DPP9, the IC50 was 48.3 nM and the “SI DPP9/8” value was found to be 17.0.
As to `CC(C)(C)NC(=O)NC12CC3CC(CC(NCC(=O)N4Cc5ccccc5C4)(C3)C1)C2.Cl` [Compound 40, 1-(tert-butyl)-3-(3-((2-(isoindolin-2-yl)-2-oxoethyl)amino)adamantan-1-yl)urea hydrochloride], on DPP8, the IC50 was 1050 ± 133 nM. Further, at DPP9, the IC50 amounted to 51.8 ± 15.7 nM and the “SI DPP9/8” value is 20.3.
For `O=C(NC12CC3CC(CC(C3)C1)C2)NC12CC3CC(CC(NCC(=O)N4Cc5ccccc5C4)(C3)C1)C2` [Compound 41, 1-(adamantan-1-yl)-3-(3-((2-(isoindolin-2-yl)-2-oxoethyl)amino)adamantan-1-yl)urea], in that order: 592 ± 87.7 nM, 32.8 nM and 18.0.
Consider `Cl.O=C(NCc1ccccc1)NC12CC3CC(CC(NCC(=O)N4Cc5ccccc5C4)(C3)C1)C2` [Compound 42, 1-benzyl-3-(3-((2-(isoindolin-2-yl)-2-oxoethyl)amino)adamantan-1-yl)urea hydrochloride], for which, at DPP8, the IC50 is 505 ± 25.7 nM. In addition, at DPP9, the IC50 is 37.8 ± 13.3 nM and the “SI DPP9/8” value is 13.4.
For `N#Cc1ccc(CCC(=O)NC23CC4CC(CC(NCC(=O)N5Cc6ccccc6C5)(C4)C2)C3)cc1` [Compound 44, 3-(4-cyanophenyl)-N-(3-((2-(isoindolin-2-yl)-2-oxoethyl)amino)adamantan-1-yl)propanamide], the IC50 on DPP8 was found to be 638 ± 46.4 nM. Besides, at DPP9, the IC50 was determined as 32 nM and the “SI DPP9/8” value was 19.9.
In the case of `CC(C)(C)OC(=O)NC12CC3CC(CC(NCC(=O)N4Cc5ccc(F)cc5C4)(C3)C1)C2` [Compound 46, tert-butyl (3-((2-(5-fluoroisoindolin-2-yl)-2-oxoethyl)amino)adamantan-1-yl)carbamate], on DPP8, the IC50 is 824 ± 148 nM. Further, at DPP9, the IC50 amounted to 14.3 nM and the “SI DPP9/8” value stood at 57.6.
Turning to `NC12CC3CC(C1)CC(NCC(=O)N1Cc4ccc(F)cc4C1)(C3)C2` [Compound 47, 2-((3-aminoadamantan-1-yl)amino)-1-(5-fluoroisoindolin-2-yl)ethan-1-one bis(2,2,2-trifluoroacetate)], the 50% inhibitory concentration (IC50) at DPP8 is 2620 ± 394 nM. Further, at DPP9, the IC50 was 259 ± 35.8 nM and the “SI DPP9/8” value amounted to 10.1.
On to `CC(C)(C)NC(=O)NC12CC3CC(CC(NCC(=O)N4Cc5ccc(F)cc5C4)(C3)C1)C2` [Compound 48, 1-(tert-butyl)-3-(3-((2-(5-fluoroisoindolin-2-yl)-2-oxoethyl)amino)adamantan-1-yl)urea], for which the IC50 at DPP8 amounted to 369 ± 30 nM. At DPP9, the IC50 came to 4 ± 1 nM and the “SI DPP9/8” value amounted to 85.
For `CC(C)(C)OC(=O)NC12CC3CC(CC(NCC(=O)N4Cc5cc(F)c(F)cc5C4)(C3)C1)C2` [Compound 49], in that order: 613 ± 154 nM, 3.4 nM and 180.3.
Take `O=C(O)CNC(=O)OC12CC3CC(CC(NCC(=O)N4Cc5ccc(F)cc5C4)(C3)C1)C2` [Compound 53]: the IC50 at DPP8 was 1740 ± 59.1 nM. Also, on DPP9, the IC50 was found to be 39.6 nM and the “SI DPP9/8” value came to 43.9.
Take `COc1ccc2c(c1)CN(C(=O)CNC13CC4CC(C1)CC(NC(=O)OC(C)(C)C)(C4)C3)C2` [Compound 59, tert-butyl (3-((2-(5-methoxyisoindolin-2-yl)-2-oxoethyl)amino)adamantan-1-yl)carbamate]: the half-inhibitory concentration (IC50) on DPP8 was determined as 5220 ± 321 nM. In addition, at DPP9, the IC50 is 309 ± 60.4 nM and the “SI DPP9/8” value was 16.9.
Take `COC(=O)[C@H](Cc1c[nH]c2ccccc12)NC(=O)OC12CC3CC(CC(NCC(=O)N4Cc5ccc(F)cc5C4)(C3)C1)C2` [Compound 60, Methyl (((3-((2-(5-fluoroisoindolin-2-yl)-2-oxoethyl)amino)adamantan-1-yl)oxy)carbonyl)-L-tryptophanate]: the IC50 at DPP8 was 689 ± 32.3 nM. In addition, on DPP9, the IC50 was determined as 43.8 nM and the “SI DPP9/8” value amounted to 15.7.
Take `COC(=O)[C@H](CCSC)NC(=O)OC12CC3CC(CC(NCC(=O)N4Cc5ccc(F)cc5C4)(C3)C1)C2` [Compound 61, Methyl (((-3-((2-(5-fluoroisoindolin-2-yl)-2-oxoethyl)amino)adamantan-1-yl)oxy)carbonyl)-L-methioninate]: at DPP8, the IC50 turned out to be 705 ± 76 nM. On DPP9, the IC50 was found to be 46.1 nM and the “SI DPP9/8” value was 15.3.
Regarding `COC(=O)[C@H](C)NC(=O)OC12CC3CC(CC(NCC(=O)N4Cc5ccc(F)cc5C4)(C3)C1)C2` [Compound 62, Methyl (((3-((2-(5-fluoroisoindolin-2-yl)-2-oxoethyl)amino)adamantan-1-yl)oxy)carbonyl)-L-alaninate], on DPP8, the IC50 was found to be 1290 ± 186 nM. Moreover, at DPP9, the IC50 came to 93.8 ± 17.3 nM and the “SI DPP9/8” value was 13.8.
As for `CC12CC3CC(C)(C1)CC(NCC(=O)N1Cc4ccc(F)cc4C1)(C3)C2` [Compound 63, 2-((3,5-Dimethyladamantan-1-yl)amino)-1-(5-fluoroisoindolin-2-yl)ethan-1-one], the IC50 on DPP8 came out at 4780 ± 670 nM. At DPP9, the IC50 turned out to be 443 ± 168 nM and the “SI DPP9/8” value stood at 10.8.
